Results from ChEMBL document CHEMBL4825686, “HTS-based discovery and optimization of novel positive allosteric modulators of the α7 nicotinic acetylcholine receptor” (Eur J Med Chem, 2021).
In brackets after ≈: the same amount, converted by molar mass. One block for each molecule: values may come before it.

Key:
[1] = target: Neuronal acetylcholine receptor subunit alpha-7 (Homo sapiens, UniProt P36544); assay: Positive allosteric modulator activity at human alpha7 nAChR expressed in Flp-In-HEK293 cells co-expressing RIC-3 assessed as potentiation of PNU282987-induced calcium influx measured after 10 mins by FLIPR assay; type: cell-based, Flp-In-293
Chain of Neuronal acetylcholine receptor subunit alpha-7 (P36544 whole entry): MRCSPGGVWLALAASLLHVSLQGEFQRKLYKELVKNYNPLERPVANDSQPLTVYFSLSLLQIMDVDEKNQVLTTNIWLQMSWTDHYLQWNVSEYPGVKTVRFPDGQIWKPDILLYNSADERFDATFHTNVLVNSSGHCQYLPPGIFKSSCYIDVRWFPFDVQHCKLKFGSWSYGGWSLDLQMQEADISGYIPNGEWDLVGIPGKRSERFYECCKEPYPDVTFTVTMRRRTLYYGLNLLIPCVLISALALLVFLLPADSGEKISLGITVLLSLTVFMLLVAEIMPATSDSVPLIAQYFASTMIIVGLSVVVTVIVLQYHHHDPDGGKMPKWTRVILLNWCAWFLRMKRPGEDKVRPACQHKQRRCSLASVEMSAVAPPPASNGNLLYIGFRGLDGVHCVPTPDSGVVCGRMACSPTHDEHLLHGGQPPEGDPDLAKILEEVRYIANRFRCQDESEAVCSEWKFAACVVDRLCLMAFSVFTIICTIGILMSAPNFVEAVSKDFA

[2] = Kinetic solubility of compound; type: physicochemical; settings: read-out: Kinetic_solubility
[3] = Metabolic stability in Wistar rat liver microsomes assessed as intrinsic clearance at 1 uM measured per mg protein upto 40 mins; type: ADME, Microsome; settings: read-out: CLH
[4] = Metabolic stability in NMRI mouse liver microsomes assessed as intrinsic clearance at 1 uM measured per mg protein upto 40 mins; type: ADME, Microsome; settings: read-out: CLH
[5] = Metabolic stability in human liver microsomes assessed as intrinsic clearance at 1 uM measured per mg protein upto 40 mins; type: ADME, Microsome; settings: read-out: CLH
[6] = Mutagenicity in Escherichia coli WP2 uvrA in presence of rat liver S9 fraction by AMES test; type: toxicity, subcellular
[7] = Mutagenicity in Salmonella typhimurium TA98 in absence of rat liver S9 fraction by AMES test; type: toxicity; settings: salmonella enterica subsp. enterica serovar typhimurium
[8] = Mutagenicity in Salmonella typhimurium TA100 in absence of rat liver S9 fraction by AMES test; type: toxicity; settings: salmonella enterica subsp. enterica serovar typhimurium
[9] = Mutagenicity in Salmonella typhimurium TA1537 in presence of rat liver S9 fraction by AMES test; type: toxicity, subcellular; settings: salmonella enterica subsp. enterica serovar typhimurium
[10] = Mutagenicity in Salmonella typhimurium TA1537 in absence of rat liver S9 fraction by AMES test; type: toxicity; settings: salmonella enterica subsp. enterica serovar typhimurium
[11] = Mutagenicity in Escherichia coli WP2 uvrA in absence of rat liver S9 fraction by AMES test; type: toxicity
[12] = Mutagenicity in Salmonella typhimurium TA1535 in absence of rat liver S9 fraction by AMES test; type: toxicity; settings: salmonella enterica subsp. enterica serovar typhimurium
[13] = Mutagenicity in Salmonella typhimurium TA100 in presence of rat liver S9 fraction by AMES test; type: toxicity, subcellular; settings: salmonella enterica subsp. enterica serovar typhimurium
[14] = Mutagenicity in Salmonella typhimurium TA98 in presence of rat liver S9 fraction by AMES test; type: toxicity, subcellular; settings: salmonella enterica subsp. enterica serovar typhimurium
[15] = Mutagenicity in Salmonella typhimurium TA1535 in presence of rat liver S9 fraction by AMES test; type: toxicity, subcellular; settings: salmonella enterica subsp. enterica serovar typhimurium

- EC50 ([1]; read-out: EC50): 55 nM
Structure (SMILES): Cn1ccc2cc(CNC(=O)N3CC(COc4ccc(Cl)cc4)C3)ccc21

- EC50 ([1]; read-out: EC50): 210 nM
Structure (SMILES): Cc1ccc(OC2CCN(C(=O)NCc3ccc4c(ccn4C)c3)CC2)cc1

- EC50 ([1]; read-out: EC50): 180 nM
Structure (SMILES): Cn1ccc2cc(CNC(=O)N3CC(COc4ccccc4)C3)ccc21

- EC50 ([1]; read-out: EC50): 60 nM
Structure (SMILES): COc1ccc(OCC2CN(C(=O)NCc3ccc4c(ccn4C)c3)C2)cc1

- EC50 ([1]; flp-in-293): Not Active
Structure (SMILES): COCC(C(=O)Nc1ccc2c(ccn2C)c1)N1CCC(Oc2ccc(C)cc2)CC1 (stereo unspecified)

- EC50 ([1]; read-out: EC50): 620 nM
Structure (SMILES): Cc1ccc(OC2CN(C(=O)NCc3ccc4c(ccn4C)c3)C2)cc1

- EC50 ([1]; read-out: EC50): 80 nM
Structure (SMILES): Cn1ccc2cc(CNC(=O)N3CC(COc4ccc(C(F)(F)F)cc4)C3)ccc21

- EC50 ([1]; flp-in-293): Not Active
Structure (SMILES): Cc1ccc(CN2CCCC(C(=O)NCc3ccc4c(ccn4C)c3)C2)cc1 (stereo unspecified)

- EC50 ([1]; read-out: EC50): 3300 nM
- solubility kinetic [2]: 5.6 µM (≈ 2.11 µg/mL)
Structure (SMILES): Cc1ccc(CN2CCN(C(=O)C(=O)Nc3ccn4cccc4c3)CC2)cc1

- EC50 ([1]; read-out: EC50): 260 nM
Structure (SMILES): Cc1ccc(OC2CCN(C(=O)C(=O)Nc3ccc4[nH]ccc4c3)CC2)cc1

- microsomal CLint at 1 µM [3]: 61 µL/min/mg
- microsomal CLint at 1 µM [4]: 40 µL/min/mg
- EC50 ([1]; flp-in-293): Not Active
- microsomal CLint at 1 µM [5]: 12 µL/min/mg
- solubility kinetic [2]: 8.1 µM (≈ 3.27 µg/mL)
Structure (SMILES): Cc1ccc(OC2CC3CCC(C2)N3C(=O)C(=O)Nc2ccc3[nH]ccc3c2)cc1 (stereo unspecified)

- EC50 ([1]; flp-in-293): Not Active
Structure (SMILES): Cc1ccc(CN2CCN(C(=O)C(=O)NCc3ccc4c(ccn4C)c3)CC2)cc1

- EC50 ([1]; read-out: EC50): 490 nM
- microsomal CLint at 1 µM [5]: 24 µL/min/mg
- solubility kinetic [2]: 18.9 µM (≈ 7.12 µg/mL)
Structure (SMILES): Cc1ccc(CN2CCN(C(=O)NCc3ccc4c(ccn4C)c3)CC2)cc1

- microsomal CLint at 1 µM [3]: 48 µL/min/mg
- microsomal CLint at 1 µM [4]: 46 µL/min/mg
- EC50 ([1]; read-out: EC50): 60 nM
- microsomal CLint at 1 µM [5]: 34 µL/min/mg
- solubility kinetic [2]: 2 µM (≈ 0.769 µg/mL)
Structure (SMILES): Cc1ccc(Oc2ccc(C(=O)C(=O)Nc3ccc4c(ccn4C)c3)cc2)cc1

- EC50 ([1]; read-out: EC50): 220 nM
Structure (SMILES): Cn1ccc2cc(CNC(=O)N3CC(COc4ccc(F)cc4)C3)ccc21

- microsomal CLint at 1 µM [3]: 127 µL/min/mg
- microsomal CLint at 1 µM [4]: 156 µL/min/mg
- EC50 ([1]; read-out: EC50): 650 nM
- microsomal CLint at 1 µM [5]: 90 µL/min/mg
- solubility kinetic [2]: 10 µM (≈ 3.86 µg/mL)
Structure (SMILES): Cc1ccc(Oc2cnc(C(=O)C(=O)Nc3ccc4c(ccn4C)c3)cn2)cc1

- microsomal CLint at 1 µM [3]: 140 µL/min/mg
- microsomal CLint at 1 µM [4]: 198 µL/min/mg
- EC50 ([1]; read-out: EC50): 920 nM
- microsomal CLint at 1 µM [5]: 17 µL/min/mg
- solubility kinetic [2]: 5 µM (≈ 2.02 µg/mL)
Structure (SMILES): Cc1ccc(CN2CCN(C(=O)C(=O)Nc3ccc4c(c3)c(C)cn4C)CC2)cc1
- Activity [6]: Toxic
- Activity [7]: Toxic
- Activity [8]: Toxic
- Activity [9]: Toxic
- Activity [10]: Toxic
- Activity [11]: Toxic
- Activity [12]: Toxic
- Activity [13]: Toxic
- Activity [14]: Toxic
- Activity [15]: Toxic

- EC50 ([1]; flp-in-293): Not Active
Structure (SMILES): Cc1ccc(CN2CCC(NC(=O)Nc3ccc4c(ccn4C)c3)CC2)cc1

- EC50 ([1]; flp-in-293): Not Active
Structure (SMILES): Cc1ccc(CN2CCC(c3nnc(C(=O)Nc4ccc5c(ccn5C)c4)o3)CC2)cc1

- EC50 ([1]; read-out: EC50): 280 nM
Structure (SMILES): Cc1ccc(OCC2CCN(C(=O)NCc3ccc4c(ccn4C)c3)C2)cc1 (stereo unspecified)

- EC50 ([1]; read-out: EC50): 2500 nM
Structure (SMILES): Cn1nc(-c2ccc3c(ccn3C)c2)cc1C(=O)N1CCN(Cc2ccc(Cl)cc2)CC1

- microsomal CLint at 1 µM [3]: 41 µL/min/mg
- microsomal CLint at 1 µM [4]: 39 µL/min/mg
- EC50 ([1]; read-out: EC50): 210 nM
- microsomal CLint at 1 µM [5]: 12 µL/min/mg
Structure (SMILES): Cc1ccc(CN2CCN(C(=O)C(=O)Nc3cnc4c(c3)c(F)cn4C)CC2)cc1

- EC50 ([1]; read-out: EC50): 600 nM
Structure (SMILES): Cc1ccc(CN2CCC(C(=O)C(=O)Nc3ccc4c(ccn4C)c3)CC2)cc1

- EC50 ([1]; read-out: EC50): 900 nM
- solubility kinetic [2]: 47.1 µM (≈ 19.2 µg/mL)
Structure (SMILES): Cc1ccc(CN2CCN(C(=O)C(=O)Nc3cc4ccn(C)c4cc3F)CC2)cc1
- Activity [6]: Toxic
- Activity [7]: Toxic
- Activity [8]: Toxic
- Activity [9]: Toxic
- Activity [10]: Toxic
- Activity [11]: Toxic
- Activity [12]: Toxic
- Activity [13]: Toxic
- Activity [14]: Toxic
- Activity [15]: Toxic

- EC50 ([1]; read-out: EC50): 910 nM
Structure (SMILES): Cc1ccc(CC2CCN(C(=O)C(=O)Nc3ccc4[nH]ccc4c3)CC2)cc1

- EC50 ([1]; read-out: EC50): 170 nM
Structure (SMILES): Cc1ccc(OC2CCN(C(=O)NCc3ccc4c(ccn4C)c3)C2)cc1 (stereo unspecified)

- microsomal CLint at 1 µM [3]: 56 µL/min/mg
- microsomal CLint at 1 µM [4]: 46 µL/min/mg
- EC50 ([1]; read-out: EC50): 400 nM
- microsomal CLint at 1 µM [5]: 0.3 µL/min/mg
- solubility kinetic [2]: 47.4 µM (≈ 18.6 µg/mL)
Structure (SMILES): Cc1ccc(CN2CCN(C(=O)C(=O)Nc3cnc4c(ccn4C)c3)CC2)cc1

- EC50 ([1]; read-out: EC50): 40 nM
Structure (SMILES): Cc1ccc(OCC2CN(C(=O)NCc3ccc4c(ccn4C)c3)C2)cc1

- EC50 ([1]; read-out: EC50): 40 nM
Structure (SMILES): Cc1ccc(Oc2ccc(C(=O)NCc3ccc4c(ccn4C)c3)cc2)cc1

- EC50 ([1]; flp-in-293): Not Active
- solubility kinetic [2]: 0.1 µM (≈ 0.0412 µg/mL)
Structure (SMILES): Cn1ccc2cc(NC(=O)C(=O)c3cnc(Oc4ccc(Cl)cc4)s3)ccc21

- microsomal CLint at 1 µM [3]: 23 µL/min/mg
- microsomal CLint at 1 µM [4]: 18 µL/min/mg
- EC50 ([1]; read-out: EC50): 820 nM
- microsomal CLint at 1 µM [5]: 71 µL/min/mg
- solubility kinetic [2]: 95 µM (≈ 37.3 µg/mL)
Structure (SMILES): Cc1ccc(CN2CCN(C(=O)C(=O)Nc3ccc4c(c3)CCN4C)CC2)cc1

- EC50 ([1]; read-out: EC50): 670 nM
Structure (SMILES): Cc1ccc(O[C@H]2CC[C@H](C(=O)C(=O)Nc3ccc4c(ccn4C)c3)CC2)cn1

- EC50 ([1]; read-out: EC50): 3000 nM
Structure (SMILES): Cc1ccc(OCC2CN(C(=O)C(=O)Nc3ccc4c(ccn4C)c3)C2)cc1

- EC50 ([1]; flp-in-293): Not Active
- microsomal CLint at 1 µM [5]: 2 µL/min/mg
- solubility kinetic [2]: 14.9 µM (≈ 6.03 µg/mL)
Structure (SMILES): Cc1ccc(CN2C[C@@H](C)N(C(=O)C(=O)Nc3ccc4[nH]ccc4c3)C[C@@H]2C)cc1

- EC50 ([1]; read-out: EC50): 1400 nM
- solubility kinetic [2]: 12.5 µM (≈ 5.11 µg/mL)
Structure (SMILES): Cc1ccc(CN2CCN(C(=O)C(=O)Nc3ccc4c(F)cn(C)c4c3)CC2)cc1
- Activity [6]: Toxic
- Activity [7]: Toxic
- Activity [8]: Toxic
- Activity [9]: Toxic
- Activity [10]: Toxic
- Activity [11]: Toxic
- Activity [12]: Toxic
- Activity [13]: Toxic
- Activity [14]: Toxic
- Activity [15]: Toxic

- microsomal CLint at 1 µM [3]: 130 µL/min/mg
- microsomal CLint at 1 µM [4]: 151 µL/min/mg
- EC50 ([1]; read-out: EC50): 110 nM
- microsomal CLint at 1 µM [5]: 17 µL/min/mg
- solubility kinetic [2]: 42.7 µM (≈ 16.8 µg/mL)
Structure (SMILES): Cc1ccc(CN2CCN(C(=O)C(=O)Nc3cc(F)c4[nH]ccc4c3)CC2)cc1
- Activity [6]: Toxic
- Activity [7]: Toxic
- Activity [8]: Toxic
- Activity [9]: Toxic
- Activity [10]: Toxic
- Activity [11]: Toxic
- Activity [12]: Toxic
- Activity [13]: Toxic
- Activity [14]: Toxic
- Activity [15]: Toxic

- EC50 ([1]; read-out: EC50): 350 nM
Structure (SMILES): Cn1ccc2cc(CNC(=O)N3CC(COc4ccc(C#N)cc4)C3)ccc21

- EC50 ([1]; flp-in-293): Not Active
Structure (SMILES): Cc1ccc(CC2CCN(C(=O)C(=O)Nc3ccc4[nH]c(C)cc4c3)CC2)cc1

- EC50 ([1]; read-out: EC50): 25 nM
Structure (SMILES): Cn1ccc2cc(CNC(=O)N3CC(COc4ccc(OC(F)(F)F)cc4)C3)ccc21

- EC50 ([1]; read-out: EC50): 660 nM
Structure (SMILES): Cc1ccc(CN2CCN(C(=O)c3nnc(-c4cccc5c4ccn5C)o3)CC2)cc1

- EC50 ([1]; read-out: EC50): 420 nM
- solubility kinetic [2]: 6.8 µM (≈ 2.89 µg/mL)
Structure (SMILES): Cc1ccc(CN2CCN(C(=O)C(=O)Nc3ccc4c(c3)c(Cl)cn4C)CC2)cc1
- Activity [6]: Toxic
- Activity [7]: Toxic
- Activity [8]: Toxic
- Activity [9]: Toxic
- Activity [10]: Toxic
- Activity [11]: Toxic
- Activity [12]: Toxic
- Activity [13]: Toxic
- Activity [14]: Toxic
- Activity [15]: Toxic
